From paper PMC10377541, “Further Characterization of Fungal Halogenase RadH and Its Homologs” (Biomolecules, 2023) come the findings set out here.

Molecules are shown by their SMILES.

The target of one assay is T1, A0A066XG69 (Colletotrichum sublineola, UniProt A0A066XG69).
T1 construct: gene CSUB01_08252; heterologously expressed in E. coli; RadH homolog
The experiment in a line: HPLC-MS chlorination assay. The assay is classed as biochemical. The settings on record: FAD, Fre, NADH, MgCl2, Tris HCl pH 7.4, 18 h.

A further assay addresses T2, E3R0Q3 (Colletotrichum graminicola, UniProt E3R0Q3).
T2 construct: gene GLRG_11837; heterologously expressed in E. coli; RadH homolog
The experiment in a line: HPLC-MS chlorination assay. It is filed as biochemical. The settings on record: FAD, Fre, NADH, MgCl2, Tris HCl pH 7.4, 18 h.

Another assay has as its target T3, RadH (Floropilus chiversii, UniProt C5H881).
T3 construct: codon-optimized synthetic gene in pET28, expressed in E. coli T7 Express, Ni-NTA purified; two monomers in the asymmetric unit
The experiment in a line: X-ray crystallography, […] Å. The settings on record: FAD bound in the flavin-binding domain; chlorine atom in adjacent space; crystals pH 6.5.

T3 sequence (C5H881 whole entry): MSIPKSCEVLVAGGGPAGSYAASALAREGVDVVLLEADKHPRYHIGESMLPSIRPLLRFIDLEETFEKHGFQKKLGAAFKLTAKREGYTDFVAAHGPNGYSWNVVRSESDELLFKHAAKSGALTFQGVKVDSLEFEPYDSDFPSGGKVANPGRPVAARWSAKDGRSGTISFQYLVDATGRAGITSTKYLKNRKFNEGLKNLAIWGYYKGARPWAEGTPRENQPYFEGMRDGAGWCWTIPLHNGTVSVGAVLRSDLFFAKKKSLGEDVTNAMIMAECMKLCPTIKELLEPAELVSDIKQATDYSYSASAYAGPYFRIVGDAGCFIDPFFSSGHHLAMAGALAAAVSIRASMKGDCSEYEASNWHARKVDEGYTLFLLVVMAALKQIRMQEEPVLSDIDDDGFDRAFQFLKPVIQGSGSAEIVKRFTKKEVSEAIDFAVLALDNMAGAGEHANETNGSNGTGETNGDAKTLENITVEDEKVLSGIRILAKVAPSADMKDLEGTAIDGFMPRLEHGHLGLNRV
T2 sequence (E3R0Q3 1-512): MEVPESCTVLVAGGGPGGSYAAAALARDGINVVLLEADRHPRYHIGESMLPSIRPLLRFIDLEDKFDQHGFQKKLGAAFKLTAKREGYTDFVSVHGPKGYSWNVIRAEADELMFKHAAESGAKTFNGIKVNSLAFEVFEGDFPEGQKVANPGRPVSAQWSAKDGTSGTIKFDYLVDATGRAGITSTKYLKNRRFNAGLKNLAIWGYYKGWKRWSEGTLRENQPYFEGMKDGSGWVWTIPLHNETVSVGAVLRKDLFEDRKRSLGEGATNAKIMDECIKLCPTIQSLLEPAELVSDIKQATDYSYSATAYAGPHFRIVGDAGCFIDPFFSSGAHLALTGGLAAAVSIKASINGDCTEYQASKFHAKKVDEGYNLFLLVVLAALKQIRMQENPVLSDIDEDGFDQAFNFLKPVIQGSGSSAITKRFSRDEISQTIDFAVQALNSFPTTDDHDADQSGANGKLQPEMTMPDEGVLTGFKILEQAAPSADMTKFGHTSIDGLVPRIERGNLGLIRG
T1 sequence (A0A066XG69 1-512): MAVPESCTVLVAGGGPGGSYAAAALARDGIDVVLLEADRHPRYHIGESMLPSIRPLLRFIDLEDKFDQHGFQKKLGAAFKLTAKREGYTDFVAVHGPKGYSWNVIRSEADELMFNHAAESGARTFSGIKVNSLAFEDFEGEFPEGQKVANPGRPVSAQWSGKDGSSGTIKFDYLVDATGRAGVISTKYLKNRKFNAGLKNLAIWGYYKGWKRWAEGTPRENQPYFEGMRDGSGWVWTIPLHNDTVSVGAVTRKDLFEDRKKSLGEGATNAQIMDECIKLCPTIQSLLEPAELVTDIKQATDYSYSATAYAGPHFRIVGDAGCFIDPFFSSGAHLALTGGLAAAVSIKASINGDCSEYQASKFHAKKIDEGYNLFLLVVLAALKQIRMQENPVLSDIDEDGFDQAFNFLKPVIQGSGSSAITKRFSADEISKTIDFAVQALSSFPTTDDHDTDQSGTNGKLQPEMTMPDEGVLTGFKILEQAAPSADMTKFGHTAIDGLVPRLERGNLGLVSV

For `Oc1ccc2cnccc2c1` [6-hydroxyisoquinoline], the HPLC-MS chlorination assay entry at A0A066XG69 was “A0A066XG69 demonstrated higher conversion compared to RadH or E3R0Q3”; on E3R0Q3, “E3R0Q3 (Colletotrichum graminicola) and A0A066XG69 (Colletotrichum sublineola), showed activity with standard 6-hydroxyhisoquinoline substrates”.
As for `Cc1cc2nc3c(=O)[nH]c(=O)nc-3n(C[C@H](O)[C@H](O)[C@H](O)COP(=O)(O)OP(=O)(O)OC[C@H]3O[C@@H](n4cnc5c(N)ncnc54)[C@H](O)[C@@H]3O)c2cc1C` [FAD], the “X-ray crystallography, 2.4 Å” value on RadH is given as “Each monomer consists of a conserved Flavin-binding domain with FAD bound”.
